The values below are quoted from earlier work in article PMC11034360 (RSC Advances, 2024).

The series has as its system H460, MDA-MB 468, MDA-MB-231 and glioblastoma (BT-33). As to conditions: comparison drug for Au(III) complexes; ref 45c.

Take `N.N.[Cl][Pt][Cl]` [cisplatin]: the IC50 is 4.16 µM.
